From patent US20050009103A1, “Methods of precise molecular-level determination of ligand-receptor interactions and designing selective drug compounds based on said interactions” (priority 2003, published 2005)
Like-named read-outs stand apart in the source and are kept apart here.

Key:
[1] = molecular target: Mouse muscle embryonic nAChR, Thr α150, Leu9′Ser mutation in M2 of the β subunit (Mus musculus, UniProt P02716+P04756+P04760+P09690, L285S); test: cell-based
Experimental: (§1) Unnatural amino acids were incorporated into the nAChR using in vivo nonsense suppression methods, and mutant receptors were evaluated electrophysiologically (Dougherty, D. A. (2000) Curr. Opin. Chem. Biol. 4:645-652).
(§2) In studies of weak agonists and/or receptors with diminished binding capability, it is necessary to introduce another mutation that independently decreases EC50. This was accomplished via a Leu-to-Ser mutation in the β subunit at a site known as 9′ in the M2 transmembrane region of the receptor. This M2-β9′ site is almost 50 Å from the binding site, and previous work has shown that a Leu9′Ser mutation lowers the EC50 by a factor of roughly 10 without altering trends in EC50 values (Beene, D. L., et al. (2002) Biochem. 41:10262-9; and Kearney, P. C., et al. (1996) Mil. Pharmacol. 50:1401-1412). […] It is important to note that the EC50 value is not a binding constant, but a composite of equilibria for both binding and gating.
To evaluate this possibility, the backbone amide at this position was converted to an ester by replacing Thr α150 with the analog α-hydroxy threonine (Tah) using the nonsense suppression methodology (FIG. 9a). Converting an amide carbonyl to an ester carbonyl weakens the hydrogen bonding ability of the oxygen, an effect that has been estimated to be worth ˜[…] (Koh, J. T., et al. (1997) Biochem. 36:11314-22). […]

[2] = system: Mouse muscle embryonic nAChR, Tah α150 (ester carbonyl of Trp α149), Leu9′Ser mutation in M2 of the β subunit; assay type: cell-based
Experimental: as §1, §2
(§3) To evaluate this possibility, the backbone amide at this position was converted to an ester by replacing Thr α150 with the analog α-hydroxy threonine (Tah) using the nonsense suppression methodology (FIG. 9a). Converting an amide carbonyl to an ester carbonyl weakens the hydrogen bonding ability of the oxygen, an effect that has been estimated to be worth ˜[…] (Koh, J. T., et al. (1997) Biochem. 36:11314-22).
(§4) Stage VI oocytes of Xenopus laevis were employed. Oocyte recordings were made 24 to 48 h post injection in two-electrode voltage clamp mode using the OpusXpress™ 6000A (Axon Instruments, Union City, Calif.). Oocytes were superfused with Ca^2+-free ND96 solution at flow rates of 1 ml/min, 4 ml/min during drug application and 3 ml/min during wash. Holding potentials were −60 mV. Data were sampled at 125 Hz and filtered at 50 Hz. Drug applications were 15 s in duration. […] All drugs were prepared in sterile ddi water for dilution into calcium-free ND96. Dose-response data were obtained for a minimum of 10 concentrations of agonists and for a minimum of 7 cells. Dose-response relations were fitted to the Hill equation to determine EC50 and Hill coefficient. EC50 for individual oocytes were averaged to obtain the reported values.
(§5) Synthetic amino acids and α-hydroxy acids were conjugated to the dinucleotide dCA and ligated to truncated 74 nt tRNA as previously described in England, P. M., et al. (1999) supra; and Nowak, M. W., et al. (1998) Methods Enzymol. 293:504-529. Deprotection of amino acyl tRNA was carried out by photolysis immediately prior to co-injection with mRNA, as described in Nowak M. W., et al. (1998) supra; and Li, L. T., et al. (2001) Chem. Biol. 8:47-58. Typically, 25 ng of tRNA were injected per oocyte along with mRNA in a total volume of 50 nl/cell. mRNA was prepared by in vitro runoff transcription using the Ambion (Austin, Tex.) mMessage mMachine kit. Mutation to the amber stop codon at the site of interest was accomplished by standard means and was verified by sequencing through both strands. For nAChR suppression, a total of 4.0 ng of mRNA was injected in the subunit ratio of 10:1:1:1 α:β:γ:δ. In all cases, the β subunit contained a Leu9′Ser mutation, as discussed above. Mouse muscle embryonic nAChR in the pAMV vector was used. In addition, the α subunits contain an HA epitope in the M3-M4 cytoplasmic loop for biochemical studies. […] As a negative control for suppression, truncated 74 nt or truncated tRNA ligated to dCA was co-injected with mRNA in the same manner as fully charged tRNA. […] The positive control for suppression involved wild-type recovery by co-injection with 74 nt tRNA ligated to dCA-Thr or dCA-Trp.

[3] = molecular target: T1, Mouse muscle embryonic nAChR, Tah α150 (ester carbonyl of Trp α149), Leu9′Ser mutation in M2 of the β subunit (Mus musculus, UniProt P02716+P04756+P04760); assay type: cell-based; details: read-out: EC50, Tah at α150
T1 construct: other: ± standard error of the mean; backbone ester; β Leu9′Ser; Mouse muscle embryonic nAChR in the pAMV vector was used
T1 sequence (P02716 25-520 limits assumed, change not shown): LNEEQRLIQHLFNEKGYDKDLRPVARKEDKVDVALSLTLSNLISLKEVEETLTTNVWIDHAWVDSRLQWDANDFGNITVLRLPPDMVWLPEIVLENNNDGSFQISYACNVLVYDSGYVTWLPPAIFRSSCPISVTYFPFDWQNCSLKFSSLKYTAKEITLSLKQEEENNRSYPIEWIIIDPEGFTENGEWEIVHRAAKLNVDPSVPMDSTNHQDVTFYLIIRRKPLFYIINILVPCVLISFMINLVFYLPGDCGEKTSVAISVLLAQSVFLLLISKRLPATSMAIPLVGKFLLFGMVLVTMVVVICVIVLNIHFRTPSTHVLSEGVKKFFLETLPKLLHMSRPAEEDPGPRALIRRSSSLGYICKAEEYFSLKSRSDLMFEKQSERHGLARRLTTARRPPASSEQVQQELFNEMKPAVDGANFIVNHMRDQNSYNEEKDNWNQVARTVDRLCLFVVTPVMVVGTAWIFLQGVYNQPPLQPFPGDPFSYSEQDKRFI
T1 sequence (P04756 21-457 limits assumed, change not shown): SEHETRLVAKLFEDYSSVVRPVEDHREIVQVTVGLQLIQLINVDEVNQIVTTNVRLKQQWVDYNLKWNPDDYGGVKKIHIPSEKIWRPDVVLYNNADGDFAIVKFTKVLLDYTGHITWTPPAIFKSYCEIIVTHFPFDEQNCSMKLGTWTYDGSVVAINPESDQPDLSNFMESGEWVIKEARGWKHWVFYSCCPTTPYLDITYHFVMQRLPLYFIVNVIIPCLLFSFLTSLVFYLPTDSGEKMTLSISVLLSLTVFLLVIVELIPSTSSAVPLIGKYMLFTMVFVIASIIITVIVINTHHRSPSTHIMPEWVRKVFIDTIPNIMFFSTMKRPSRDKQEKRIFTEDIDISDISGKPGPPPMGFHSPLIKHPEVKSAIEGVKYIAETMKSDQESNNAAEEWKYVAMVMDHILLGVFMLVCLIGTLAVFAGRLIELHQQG
T1 sequence (P04760 23-519 limits assumed, change not shown): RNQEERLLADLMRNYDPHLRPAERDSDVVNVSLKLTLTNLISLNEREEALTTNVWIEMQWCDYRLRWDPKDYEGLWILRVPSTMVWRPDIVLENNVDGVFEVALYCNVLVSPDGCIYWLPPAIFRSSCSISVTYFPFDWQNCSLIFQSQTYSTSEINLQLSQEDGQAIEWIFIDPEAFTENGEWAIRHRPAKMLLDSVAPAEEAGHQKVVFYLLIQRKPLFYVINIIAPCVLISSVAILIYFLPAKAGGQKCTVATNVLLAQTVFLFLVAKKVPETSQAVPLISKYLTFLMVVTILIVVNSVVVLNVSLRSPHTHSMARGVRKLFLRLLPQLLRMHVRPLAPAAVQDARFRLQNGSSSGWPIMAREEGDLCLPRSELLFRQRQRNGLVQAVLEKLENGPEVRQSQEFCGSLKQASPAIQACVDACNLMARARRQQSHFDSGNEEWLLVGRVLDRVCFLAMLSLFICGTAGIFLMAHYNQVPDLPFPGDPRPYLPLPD
Experimental: as §1, §2, §3, §4, §5

[4] = system: Mouse muscle embryonic nAChR, 4,5,6,7-F4-Trp at α149, Leu9′Ser mutation in M2 of the β subunit; test: Two-electrode voltage clamp of Xenopus oocytes expressing nAChR, F4-Trp at α149; assay type: cell-based
Experimental: as §1, §2
Stage VI oocytes of Xenopus laevis were employed. Oocyte recordings were made 24 to 48 h post injection in two-electrode voltage clamp mode using the OpusXpress™ 6000A (Axon Instruments, Union City, Calif.). Oocytes were superfused with Ca^2+-free ND96 solution at flow rates of 1 ml/min, 4 ml/min during drug application and 3 ml/min during wash. Holding potentials were −60 mV. Data were sampled at 125 Hz and filtered at 50 Hz. […]

Mouse muscle embryonic nAChR, Thr α150, Leu9′Ser mutation in M2 of the β subunit, sequence (P04756 21-457): as the sequence (P04756 21-457 limits assumed, change not shown) above
Mouse muscle embryonic nAChR, Thr α150, Leu9′Ser mutation in M2 of the β subunit, sequence (P09690 24-501 L285S): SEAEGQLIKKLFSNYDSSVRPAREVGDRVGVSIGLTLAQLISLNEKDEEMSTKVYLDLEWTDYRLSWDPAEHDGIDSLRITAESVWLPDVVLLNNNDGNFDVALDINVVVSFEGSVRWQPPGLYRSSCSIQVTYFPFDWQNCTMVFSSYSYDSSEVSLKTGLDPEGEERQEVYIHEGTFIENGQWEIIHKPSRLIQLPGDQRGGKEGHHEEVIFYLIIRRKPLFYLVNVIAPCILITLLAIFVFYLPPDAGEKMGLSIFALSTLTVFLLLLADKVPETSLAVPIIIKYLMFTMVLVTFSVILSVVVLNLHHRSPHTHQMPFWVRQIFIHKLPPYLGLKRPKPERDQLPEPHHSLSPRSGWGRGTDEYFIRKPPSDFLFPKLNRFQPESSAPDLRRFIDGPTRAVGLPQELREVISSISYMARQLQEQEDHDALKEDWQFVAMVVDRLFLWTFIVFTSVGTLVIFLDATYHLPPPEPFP
Mouse muscle embryonic nAChR, Thr α150, Leu9′Ser mutation in M2 of the β subunit, sequence (P04760 23-519): as the sequence (P04760 23-519 limits assumed, change not shown) above
Mouse muscle embryonic nAChR, Thr α150, Leu9′Ser mutation in M2 of the β subunit, sequence (P02716 25-520): as the sequence (P02716 25-520 limits assumed, change not shown) above

CN1CCCC1c1cccnc1 (centres unmarked) [Nic, nicotine]
EC50 [1]: 57 ± 2 µM
Tah/Thr (fold increase in EC50 upon ester substitution) [2]: 1.6
drop in hydrogen bonding strength [2]: ~5 fold
energy corresponding to drop in hydrogen bonding strength [2]: 1.0 kcal/mol
EC50 [3]: 92 ± 4 µM

Clc1ccc(C2CC3CCC2N3)cn1 (racemic) [Epi, epibatidine]
Epi concentrations required by 4,5,6,7-F4-Trp α149 mutant (dose-response unsuccessful) [4]: above 100 μM
drop in hydrogen bonding strength ([2]; Tah/Thr ratio multiplied by generic 3.3-fold decrease seen with ACh): ~12 fold
energy corresponding to drop in hydrogen bonding strength ([2]; from corrected fold change): 1.5 kcal/mol
